The nature of series [1]: Hepatic microsome stability, mouse. The following applies: mouse liver microsomes. Format: in vitro ADME. The method, then: (§1) Hepatic microsomal stability assays were performed in two stages. In the first set of experiments, aliquots of the DMSO solute stocks were diluted into ACN and then into assay buffer (PBS, pH 7.4, ±0.05% PS80). Final experimental solute concentrations were 1 μM (0.6% ACN, 0.01% DMSO). Commercially available mouse, rat, or human hepatic microsomes (˜0.5 mg/ml final concentration), and NADPH (1 mM) or PBS were added. The resulting mixture was incubated at 37° C., and aliquots removed at 0, 1, 10, 30 and 60 min, then quenched with ACN containing 2 μM carbamazepine (internal standard). […] Duplicate incubations were run for each time-point. The percentage of solute remaining at the end of the incubation was used to determine solute half-life.
(§2) These were diluted 500-fold into 1 mL of microsomal incubation mixture to yield a final concentration of 1 μM. The incubation mixture was composed of 100 mM phosphate buffer, pH 7.4, and NADPH regenerating system (BD Biosciences NADPH Regenerating System Solutions A & B). This mixture was preincubated at 37° C. for 5 min in an Eppendorf Thermo mixer, and the reaction initiated by addition of 0.5 mg (25 μl of a 20 mg/mL solution) of liver microsomes. Aliquots (100 μl) were withdrawn at 0, 5, 15, 30, and 60 min, and added to 100 μl ACN containing internal standard. […] The percentage of solute remaining at the end of the incubation was used to determine species-specific values of scaled intrinsic clearance, hepatic clearance, and predicted hepatic extraction based upon the calculations below {Obach, 1999 #9097}.
(§3) for which mg microsomal protein/gm liver was 45 for all species, and gm liver/kg body weight were 32 for dog, 88 for mouse, 40 for rat and 25 for human.
(§4) Clh=(Q*Clint,scaled)/(Q+Clint,scaled)
(§5) for which Q was hepatic blood flow; values of 90 ml/min/kg for mouse, 66 ml/min/kg for rat, and 21 ml/min/kg for human were used.
(§6) for which ER estimates the amount of compound cleared during a single pass through the liver (Low ER<0.3, moderate ER 0.3-0.7, high ER>0.7).
(Liver microsomes are vesicles of endoplasmic reticulum, rich in cytochrome P450 enzymes.)

A short description of series [2]: Hepatic microsome stability, human. The series is classed as in vitro ADME. The method, then:
as §1, §2, §3, §4, §5, §6

Series [3] in a line: Single-dose pharmacokinetic studies in female FVB mice (PO, IV, IP). The series is classed as in vivo, mouse. The settings on record: mouse; for bioavailability / Kp: female, 10 mg/kg; for bioavailability: FVB, mice, IV 1 mg/kg, oral 10 mg/kg, read-out: oral (absolute) bioavailability; for Kp: brain and plasma, FVB mice, single oral dose, read-out: brain:plasma AUClast ratio. On the procedure: For in-vivo pharmacokinetic studies, compounds were dissolved in a formulation containing 20% propylene glycol, 5% ethanol, 5% labrosol, and 70% polyethylene glycol 400 (PEG400) and administered by oral gavage to female FVB mice weighing ˜25 g. At specified time points after dosing (0.25, 0.5, 1, 2, 4, 6, and 24 h), 2 animals were euthanized by CO2, and ˜1 mL blood (by cardiac puncture) and brain samples were collected. The heparinized blood samples were centrifuged to obtain plasma, which was stored at −80° C. until analysis. Brain samples were weighed, diluted […] with water, and then homogenized using a Precellys 24 tissue homogenizer. Brain homogenates (20% wt/vol) were stored at −80° C. until analysis. Pharmacokinetic protocols involving animals were all reviewed and approved by the UCSF institutional animal care and use committee (IACUC).
Plasma and brain homogenate samples were extracted using a protein-precipitation method and analyzed by specific LC/MS/MS methods developed for each compound dosed in vivo. The analytical method accuracy and precision were monitored by analyzing quality control (QC) samples that were prepared and treated using the same methods as calibration standards for the plasma or brain homogenate samples.
The data were used to calculate the area under the concentration-time curve (AUClast) by noncompartmental analysis with sparse sampling performed using Phoenix WinNonlin 6.1 software (Pharsight, Mountain View, Calif.).
Pharmacokinetic protocols employing mice were reviewed and approved by the UCSF Institutional Animal Care and Use Committee (IACUC). Female FVB mice, weighing approximately 25 g, were used for all in vivo pharmacokinetic studies. Mice were housed with free access to food and water, and were maintained on 12-h light/dark cycles for 1 week before dosing studies were initiated.
For the single-dose of 40 mg/kg, compounds were dissolved in a formulation containing 5% propylene glycol, […] α-tocopheryl polyethylene glycol 1000 succinate (TPGS) and 70% polyethylene glycol 400 (PEG400), and administered by oral gavage. Two animals per time point were used. At specified time points after dosing (0.5, 1, 2, 4, 6, and 24 h), animals were euthanized by CO2, and blood for plasma (by cardiac puncture) and brain samples were collected. The heparinized blood samples were centrifuged to obtain plasma. Brain samples were weighed, diluted 10-fold with water, and then homogenized using a Precellys 24 tissue homogenizer. The brain and plasma samples were flash-frozen on dry ice and then stored at −80° C. until analysis. For the single-dose administration at 10 mg/kg, compounds were dissolved in a formulation containing 20% propylene glycol, 5% ethanol, 5% labrosol, and 70% PEG400, and administered by oral gavage. Two animals per time point were used. At specified time points after dosing (0.25, 0.5, 1, 2, 4, 6, and 24 h), animals were euthanized by CO2, and blood for plasma (by cardiac puncture) and brain samples were collected. The heparinized blood samples were centrifuged to obtain plasma. Brain samples were weighed, diluted five-fold with water, and then homogenized using a Precellys 24 tissue homogenizer. The brain and plasma samples were flash-frozen on dry ice and then stored at −80° C. until analysis.
Compounds were administered through tail vein injection. Two animals per time point were used. At specified time points after dosing (5 min, 0.25, 0.5, 1, 2, 4, and 6 h), animals were euthanized by CO2. Blood and brain samples were obtained and processed as described above for the oral dosing at 40 mg/kg.
Plasma and brain homogenate samples were extracted using a protein-precipitation method and analyzed by specific LC/MS/MS methods developed for each compound dosed in vivo. The analytical method accuracy and precision were monitored by analyzing quality control (QC) samples that were prepared by the same methods as the plasma or brain homogenate samples. […]

Series [4] can be described thus: Hepatic microsomal stability, rat.
A short description of series [5]: Hepatic microsomal stability, mouse. The following applies: for half-life at 1 μM: CD-1, mouse, pH 7.4.
A short description of series [6]: Hepatic microsomal stability, human. The following applies: for half-life at 1 μM: human, pH 7.4.
A short description of series [7]: Tolerability / toxicity on repeated dosing in mice.

The text below walks through data of US20140329863A1 (priority 2011, published 2014).

“Also recorded” adds a separate entry of the source. Like-named read-outs stand apart in the source and are kept apart here.

Consider `C(=N\Nc1ccc(-c2cnco2)cc1)/c1ccncc1` [IND54304, reference compound], for which the “hepatic extraction ratio (ER)” value in series [1] is listed as “moderate (moderate ER 0.3-0.7)”; in series [2] (human liver microsomes), “low (Low ER<0.3)”. In series [3] (plasma, po), the bioavailability was 25 to 27%. Also, the Kp in series [3] came to 0.5. For the same molecule, the “Hepatic Extraction Ratio Rat Female” value in series [4] (female rat microsomes) was 0.27. Besides, the “Hepatic Extraction Ratio Rat Male” value in series [4] (male rat microsomes) worked out at 0.27. For the same molecule, the “Hepatic Extraction Ratio Mouse Female” value in series [5] (female mouse microsomes) is 0.64. The half-life at 1 μM in series [5] (female, liver microsomes) came to 0.567 h; in series [5] (male, liver microsomes) it was 0.417 h; in series [6] (both, liver microsomes) it was 2.17 h. Besides, the “Hepatic Extraction Ratio Mouse Male” value in series [5] (male mouse microsomes) was found to be 0.71. In addition, in series [6] (human (mixed) microsomes, gender study), the “Hepatic Extraction Ratio Human” value is reported as 0.34. Further, the tolerability result in series [7] (25, 50, 100, 150 mg/kg for 3 days in liquid diet) was “tolerated”. In addition, the animals dying in series [7] (≧150 mg/kg/day for 8 days) is 2/4.

In the case of `Cc1cccc(Nc2nc(-c3ccc(-c4ccccc4)cc3)cs2)n1` [IND24, (4-Biphenyl-4-yl-thiazol-2-yl)-(6-methyl-pyridin-2-yl)-amine], the “metabolic stability (in words)” value in series [1] and in series [2] (human liver microsomes) was “stable; also recorded: excellent stability” in each case. In addition, the half-life at 1 μM in series [1] (pH 7.4, 1 μM) was more than 1 h; in series [2] (pH 7.4, human liver microsomes, 1 μM), more than 1 h; in series [4] (Sprague-Dawley, rat, […], pH 7.4), more than 1 h; in series [5] (liver microsomes) it was more than 1 h; in series [5] (mouse liver microsomes), more than 1 h; in series [5] (female, liver microsomes), 4.83 h. Further, the half-life at 1 μM was 3.17 h in series [5] (male, liver microsomes); 23.3 h in series [6] (both, liver microsomes); more than 1 h in series [6] (human liver microsomes); more than 1 h in series [6] (liver microsomes). For the same molecule, the “metabolism in HLM incubations” value in series [2] (pooled human liver microsomes, 1 μM, 60 min, with or without CYP inhibitors) is “very little metabolism”. The bioavailability in series [3] (plasma, oral) was 27 to 40%; in series [3] (plasma, po), 40%. Moreover, the Kp in series [3] was determined as 2.6. Further, in series [3] (plasma, female FVB mice, 1 mg/kg IV), the half-life was 2 h. Also, the “% remaining after a 60-min incubation, Rat” value in series [4] ([…], 60-min incubation) is given as 90%. Besides, the “% remaining after a 60-min incubation, Mouse” value in series [5] (mouse liver microsomes, 60-min incubation) is on record as 89%. For the same molecule, the “% remaining after a 60-min incubation, Human” value in series [6] (human liver microsomes, 60-min incubation) was found to be 105%. The tolerability result in series [7] (chronic studies in mice, wide range of doses) is given as “well tolerated”.

What is called bioavailability is dose-corrected exposure relative to a reference, in per cent. By half-life is commonly meant the time needed for the level to fall by half in the phase considered. A high value points to slow loss.
